# Data from patent publication US20230348424A1, “HETEROCYCLIC COMPOUNDS AND METHODS OF USE” (Schrödinger, Inc., priority 2022, published 2023).
# Key:
# [1] = target: SOS1:KRAS (G12C) interaction (Homo sapiens (Human), UniProt Q07889); test: SOS1 KRas(G12C) FRET Assay; format: binding; conditions: 0.5 nM His10-SOS1 (res. 564-1049), 2.5 nM GST-KRAS G12C (res. 1-169), 2 hrs at RT
# Method in brief: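 GST-KRAS G12C (res. 1-169) at 2.5 nM and His10-SOS1 (res. 564-1049) at 0.5 nM, final, in PBS with 0.1% BSA, 5 mM MgCl2, 100 mM KF, 5 mM DTT and 0.5% DMSO. After 2 h at RT, FRET read at 665/615 nm and normalized to DMSO and no-SOS1 controls. IC50 by non-linear regression.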
# human SOS1 = human SOS1 (Homo sapiens (Human), UniProt Q07889); test: Surface Plasmon Resonance (SPR) SOS1 Binding Assay; conditions: biotinylated SOS1 (res. 564-1049), Biacore 8K, 25° C., kinetic or steady state fit, 1:1 binding; read-out: hSOS1 KD
# Experimental: Binding to SOS1 was measured using a SPR assay with purified recombinant human SOS1 substrate (res. 564-1049 with N-terminal Avi tag; purified and biotinylated based on Hillig, et al., Proc Natl Acad Sci USA (2019); 116(7):2551-2560). SPR measurements were performed on a Biacore 8K SPR instrument (GE Healthcare, Sweden). Assays were performed at 25° C. using Series S SA sensor chips pre-coated with streptavidin (GE Healthcare, Cat. BR100531). Biotinylated SOS1 diluted in sample buffer (20 mM Tris HCI, 150 mM NaCl, 1 mM DTT, 0.05% TWEEN 20, 1 mM MgCh, pH 8.0) was captured to one flow cell of the chip to about 3,000 resonance units (RU) using sample buffer supplemented with 5% DMSO as a running buffer. Serial dilutions of the assayed compounds in the running buffer at 100, 50 or 0.5 µM were injected for 60 s at a flow rate of 30 µL/min and association phases were recorded. Dissociation of the samples was monitored for 600 s. Data processing was performed using Biacore Insight Software (Biacore, GE Healthcare). Sensorgrams recorded on a SA flow cell without captured protein were subtracted from sensorgrams recorded on the SOS1 surface. Blank injections of running buffer were used for double referencing and solvent correction was applied to all sample sensorgrams to correct for buffer mismatches. KDS were estimated using a kinetic or steady state, where applicable, fitting model describing a reversible equilibrium with 1:1 binding between SOS1 and the compound.
# Sequence of human SOS1 (Q07889 564-1049): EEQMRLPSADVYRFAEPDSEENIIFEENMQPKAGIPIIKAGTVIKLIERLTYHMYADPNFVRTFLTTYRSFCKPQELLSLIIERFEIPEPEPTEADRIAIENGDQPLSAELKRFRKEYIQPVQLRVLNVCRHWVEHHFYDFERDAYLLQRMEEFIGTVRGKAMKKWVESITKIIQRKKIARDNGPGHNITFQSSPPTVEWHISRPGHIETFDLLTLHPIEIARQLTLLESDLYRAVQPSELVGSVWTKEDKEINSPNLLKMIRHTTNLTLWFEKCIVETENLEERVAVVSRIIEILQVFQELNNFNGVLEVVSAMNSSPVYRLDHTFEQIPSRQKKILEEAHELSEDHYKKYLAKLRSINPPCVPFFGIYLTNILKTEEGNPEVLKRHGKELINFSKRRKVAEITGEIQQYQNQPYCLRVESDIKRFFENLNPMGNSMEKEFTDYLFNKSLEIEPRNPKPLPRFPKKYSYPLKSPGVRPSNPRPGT
# Sequence of SOS1:KRAS (G12C) interaction (Q07889 564-1049, stated change not applied): as the sequence (Q07889 564-1049) above
SMILES,IC50 [1],Kd (human SOS1)
"C[C@@H](NC(=O)c1cn(C23CC(C2)C3)c(=O)cc1N[C@H]1[C@@H]2CN(C)C[C@@H]21)c1cccc(C(F)F)c1F [Example 90, 1-(bicyclo[1.1.1]pentan-1-yl)-N-((R)-1-(3-(difluoromethyl)-2-fluorophenyl)ethyl)-4-(((1R,5S,6s)-3-methyl-3-azabicyclo[3.1.0]hexan-6-yl)amino)-6-oxo-1,6-dihydropyridine-3-carboxamide]",13.4 nM,9 nM
"C[C@@H](NC(=O)c1cn(C2(C(F)F)CC2)c(=O)cc1NC[C@@H]1CC2CCN1CC2)c1cccc(C(F)F)c1F [Example 85, N-((R)-1-(3-(difluoromethyl)-2-fluorophenyl)ethyl)-1-(1-(difluoromethyl)cyclopropyl)-6-oxo-4-((((S)-quinuclidin-2-yl)methyl)amino)-1,6-dihydropyridine-3-carboxamide]",26.1 nM,12 nM
"C[C@@H](NC(=O)c1cn([C@@H]2CC2(F)F)c(=O)cc1N[C@H]1[C@@H]2CN(C)C[C@@H]21)c1cccc(C(F)F)c1F (single isomer, unassigned) [Example 92]",16.1 nM,9 nM
"CO[C@@H]1CN(C)CC[C@@H]1Nc1cc(=O)n(C2(C(F)F)CC2)cc1C(=O)N[C@H](C)c1cccc(C(F)F)c1F [Example 154, N-((R)-1-(3-(difluoromethyl)-2-fluorophenyl)ethyl)-1-(1-(difluoromethyl)cyclopropyl)-4-(((3R,4S)-3-methoxy-1-methylpiperidin-4-yl)amino)-6-oxo-1,6-dihydropyridine-3-carboxamide]",37.6 nM,23 nM
"Cc1c([C@@H](C)NC(=O)c2cn(C3CCOCC3)c(=O)cc2N[C@@H]2CCCN(C)C2)cccc1C(F)(F)F [Example 5, N-((R)-1-(2-methyl-3-(trifluoromethyl)phenyl)ethyl)-4-(((R)-1-methylpiperidin-3-yl)amino)-6-oxo-1-(tetrahydro-2H-pyran-4-yl)-1,6-dihydropyridine-3-carboxamide]",35.5 nM,20 nM
"C[C@@H](NC(=O)c1cn([C@@H]2CCOC[C@H]2F)c(=O)cc1N[C@H]1[C@@H]2CN(C)C[C@@H]21)c1cccc(C(F)F)c1F [Example 128, N-((R)-1-(3-(difluoromethyl)-2-fluorophenyl)ethyl)-1-((3S,4R)-3-fluorotetrahydro-2H-pyran-4-yl)-4-(((1R,5S,6s)-3-methyl-3-azabicyclo[3.1.0]hexan-6-yl)amino)-6-oxo-1,6-dihydropyridine-3-carboxamide]",8.2 nM,3 nM
"C[C@@H](NC(=O)c1cn(C2(C(F)(F)F)CC2)c(=O)cc1N[C@H]1[C@@H]2CN(C)C[C@@H]21)c1cccc(C(F)F)c1F [Example 119, N-((R)-1-(3-(difluoromethyl)-2-fluorophenyl)ethyl)-4-(((1R,5S,6s)-3-methyl-3-azabicyclo[3.1.0]hexan-6-yl)amino)-6-oxo-1-(1-(trifluoromethyl)cyclopropyl)-1,6-dihydropyridine-3-carboxamide]",36.6 nM,23 nM
"C[C@@H](NC(=O)c1cn(C23CC(F)(C2)C3)c(=O)cc1N[C@@H]1CCN(C)C[C@@H]1F)c1cccc(C(F)F)c1F [Example 143, N-((R)-1-(3-(difluoromethyl)-2-fluorophenyl)ethyl)-4-(((3S,4R)-3-fluoro-1-methylpiperidin-4-yl)amino)-1-(3-fluorobicyclo[1.1.1]pentan-1-yl)-6-oxo-1,6-dihydropyridine-3-carboxamide]",3.8 nM,3 nM
"Cc1c([C@@H](C)NC(=O)c2cn(C3CCOCC3)c(=O)cc2NC2(C)CCN(C)CC2)cccc1C(F)(F)F [Example 45, (R)-4-((1,4-dimethylpiperidin-4-yl)amino)-N-(1-(2-methyl-3-(trifluoromethyl)phenyl)ethyl)-6-oxo-1-(tetrahydro-2H-pyran-4-yl)-1,6-dihydropyridine-3-carboxamide]",37.9 nM,21 nM
"C[C@@H](NC(=O)c1cn(C2(C(F)F)CC2)c(=O)cc1NC1CCN(C)CC1)c1cccc(C(F)(F)F)c1F [Example 52, (R)-1-(1-(difluoromethyl)cyclopropyl)-N-(1-(2-fluoro-3-(trifluoromethyl)phenyl)ethyl)-4-((1-methylpiperidin-4-yl)amino)-6-oxo-1,6-dihydropyridine-3-carboxamide]",13.6 nM,6 nM
"Cc1c([C@@H](C)NC(=O)c2cn(C3CCOCC3)c(=O)cc2NC2CC3(C2)CN(C)C3)cccc1C(F)(F)F [Example 21, (R)-4-((2-methyl-2-azaspiro[3.3]heptan-6-yl)amino)-N-(1-(2-methyl-3-(trifluoromethyl)phenyl)ethyl)-6-oxo-1-(tetrahydro-2H-pyran-4-yl)-1,6-dihydropyridine-3-carboxamide]",53.7 nM,17 nM
"C[C@H](Nc1cc(=O)n(C2(C(F)F)CC2)cc1C(=O)N[C@H](C)c1cccc(C(F)F)c1F)c1cncn1C [Example 87, N-((R)-1-(3-(difluoromethyl)-2-fluorophenyl)ethyl)-1-(1-(difluoromethyl)cyclopropyl)-4-(((S)-1-(1-methyl-1H-imidazol-5-yl)ethyl)amino)-6-oxo-1,6-dihydropyridine-3-carboxamide]",61.7 nM,84 nM
"C[C@@H](NC(=O)c1cn(C2(C(F)F)CC2)c(=O)cc1N[C@H]1CCN(C)C[C@@H]1F)c1cccc(C(F)F)c1F (single isomer, unassigned) [Example 66]",48.6 nM,34 nM
"C[C@@H](NC(=O)c1cn(C2(C(F)(F)F)CC2)c(=O)cc1N[C@@H]1[C@@H]2CC[C@H]1CN(C)C2)c1cccc(C(F)F)c1F (single isomer, unassigned) [Example 138]",19.7 nM,12 nM
"COC1(CNc2cc(=O)n(C3CCOCC3)cc2C(=O)N[C@H](C)c2cccc(C(F)(F)F)c2C)CN(C)C1 [Example 29, (R)-4-(((3-methoxy-1-methylazetidin-3-yl)methyl)amino)-N-(1-(2-methyl-3-(trifluoromethyl)phenyl)ethyl)-6-oxo-1-(tetrahydro-2H-pyran-4-yl)-1,6-dihydropyridine-3-carboxamide]",19.1 nM,11 nM
"C[C@@H](NC(=O)c1cn([C@H]2C[C@@H]2C(F)(F)F)c(=O)cc1N[C@H]1[C@@H]2CN(C)C[C@@H]21)c1cccc(C(F)F)c1F (single isomer, unassigned) [Example 111]",26.2 nM,17 nM
"C[C@@H](NC(=O)c1cn(C2(C(F)F)CC2)c(=O)cc1N[C@@H]1CN2CCC1CC2)c1cccc(C(F)F)c1F [Example 84, N-((R)-1-(3-(difluoromethyl)-2-fluorophenyl)ethyl)-1-(1-(difluoromethyl)cyclopropyl)-6-oxo-4-(((S)-quinuclidin-3-yl)amino)-1,6-dihydropyridine-3-carboxamide]",10.2 nM,9 nM
"C[C@@H](NC(=O)c1cn([C@@H]2C[C@H]2C(F)(F)F)c(=O)cc1N[C@H]1[C@@H]2CN(C)C[C@@H]21)c1cccc(C(F)F)c1F (single isomer, unassigned) [Example 112]",13.6 nM,6 nM
"C[C@@H](NC(=O)c1cn([C@H]2CC23CCC3)c(=O)cc1N[C@H]1[C@@H]2CN(C)C[C@@H]21)c1cccc(C(F)F)c1F (single isomer, unassigned) [Example 117]",8.5 nM,6 nM
"C[C@@H](NC(=O)c1cn(C2(C(F)F)CC2)c(=O)cc1N[C@H]1[C@@H]2CN(C)C[C@@H]21)c1cccc(C(F)(F)F)c1F [Example 130, 1-(1-(difluoromethyl)cyclopropyl)-N-((R)-1-(2-fluoro-3-(trifluoromethyl)phenyl)ethyl)-4-(((1R,5S,6s)-3-methyl-3-azabicyclo[3.1.0]hexan-6-yl)amino)-6-oxo-1,6-dihydropyridine-3-carboxamide]",26.7 nM,23 nM
"C[C@@H](NC(=O)c1cn([C@H]2C[C@H](F)C2)c(=O)cc1N[C@H]1[C@@H]2CN(C)C[C@@H]21)c1cccc(C(F)F)c1F [Example 97, N-((R)-1-(3-(difluoromethyl)-2-fluorophenyl)ethyl)-1-((1r,3R)-3-fluorocyclobutyl)-4-(((1R,5S,6s)-3-methyl-3-azabicyclo[3.1.0]hexan-6-yl)amino)-6-oxo-1,6-dihydropyridine-3-carboxamide]",16.7 nM,7 nM
"C[C@@H](NC(=O)c1cn(C23CC(C2)C3)c(=O)cc1N[C@H]1CN2CCC1CC2)c1cccc(C(F)F)c1F [Example 155, 1-(bicyclo[1.1.1]pentan-1-yl)-N-((R)-1-(3-(difluoromethyl)-2-fluorophenyl)ethyl)-6-oxo-4-(((R)-quinuclidin-3-yl)amino)-1,6-dihydropyridine-3-carboxamide]",21.2 nM,11 nM
